How the values were obtained:
PI3 Kinase α = PI3 Kinase α (Homo sapiens, UniProt P42336); assay: Fluorescence polarization assay for PI3K (PI3 Kinase α); format: biochemical; conditions: diC8-PI(4,5)P2 substrate, 25 μM ATP, one hour at 25° C.
PI3 Kinase γ = PI3 Kinase γ (Homo sapiens, UniProt P48736); assay: Fluorescence polarization assay for PI3K (PI3 Kinase γ); format: biochemical; conditions: diC8-PI(4,5)P2 substrate, 25 μM ATP, one hour at 25° C.
Chain of PI3 Kinase γ (P48736 whole entry): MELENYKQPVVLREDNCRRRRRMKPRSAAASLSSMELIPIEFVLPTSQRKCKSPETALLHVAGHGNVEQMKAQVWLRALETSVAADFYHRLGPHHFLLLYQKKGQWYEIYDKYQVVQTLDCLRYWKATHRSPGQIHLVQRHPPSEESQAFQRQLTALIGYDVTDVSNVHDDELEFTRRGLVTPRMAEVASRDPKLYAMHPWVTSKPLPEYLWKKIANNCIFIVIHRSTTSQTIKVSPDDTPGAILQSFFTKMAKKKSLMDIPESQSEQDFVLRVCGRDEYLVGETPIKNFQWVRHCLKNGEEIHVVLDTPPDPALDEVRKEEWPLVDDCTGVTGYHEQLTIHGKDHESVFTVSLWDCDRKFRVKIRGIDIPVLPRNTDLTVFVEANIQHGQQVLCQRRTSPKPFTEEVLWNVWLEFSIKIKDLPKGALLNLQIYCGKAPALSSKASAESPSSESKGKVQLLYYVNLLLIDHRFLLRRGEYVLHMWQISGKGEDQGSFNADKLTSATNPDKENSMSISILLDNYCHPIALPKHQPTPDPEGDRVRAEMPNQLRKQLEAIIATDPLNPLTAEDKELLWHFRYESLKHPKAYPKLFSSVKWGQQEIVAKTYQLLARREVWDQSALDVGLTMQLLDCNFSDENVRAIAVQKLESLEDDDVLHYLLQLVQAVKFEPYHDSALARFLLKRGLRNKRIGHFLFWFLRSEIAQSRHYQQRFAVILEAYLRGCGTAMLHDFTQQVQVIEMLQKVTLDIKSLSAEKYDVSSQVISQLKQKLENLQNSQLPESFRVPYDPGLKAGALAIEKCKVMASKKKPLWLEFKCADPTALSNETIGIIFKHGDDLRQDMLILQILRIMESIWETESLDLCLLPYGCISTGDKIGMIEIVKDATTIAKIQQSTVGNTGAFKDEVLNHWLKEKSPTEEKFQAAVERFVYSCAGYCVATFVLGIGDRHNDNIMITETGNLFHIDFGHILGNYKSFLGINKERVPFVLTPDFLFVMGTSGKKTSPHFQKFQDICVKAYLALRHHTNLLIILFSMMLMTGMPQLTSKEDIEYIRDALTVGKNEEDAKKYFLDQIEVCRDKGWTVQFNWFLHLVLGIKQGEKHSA

Chain of PI3 Kinase α (P42336 whole entry): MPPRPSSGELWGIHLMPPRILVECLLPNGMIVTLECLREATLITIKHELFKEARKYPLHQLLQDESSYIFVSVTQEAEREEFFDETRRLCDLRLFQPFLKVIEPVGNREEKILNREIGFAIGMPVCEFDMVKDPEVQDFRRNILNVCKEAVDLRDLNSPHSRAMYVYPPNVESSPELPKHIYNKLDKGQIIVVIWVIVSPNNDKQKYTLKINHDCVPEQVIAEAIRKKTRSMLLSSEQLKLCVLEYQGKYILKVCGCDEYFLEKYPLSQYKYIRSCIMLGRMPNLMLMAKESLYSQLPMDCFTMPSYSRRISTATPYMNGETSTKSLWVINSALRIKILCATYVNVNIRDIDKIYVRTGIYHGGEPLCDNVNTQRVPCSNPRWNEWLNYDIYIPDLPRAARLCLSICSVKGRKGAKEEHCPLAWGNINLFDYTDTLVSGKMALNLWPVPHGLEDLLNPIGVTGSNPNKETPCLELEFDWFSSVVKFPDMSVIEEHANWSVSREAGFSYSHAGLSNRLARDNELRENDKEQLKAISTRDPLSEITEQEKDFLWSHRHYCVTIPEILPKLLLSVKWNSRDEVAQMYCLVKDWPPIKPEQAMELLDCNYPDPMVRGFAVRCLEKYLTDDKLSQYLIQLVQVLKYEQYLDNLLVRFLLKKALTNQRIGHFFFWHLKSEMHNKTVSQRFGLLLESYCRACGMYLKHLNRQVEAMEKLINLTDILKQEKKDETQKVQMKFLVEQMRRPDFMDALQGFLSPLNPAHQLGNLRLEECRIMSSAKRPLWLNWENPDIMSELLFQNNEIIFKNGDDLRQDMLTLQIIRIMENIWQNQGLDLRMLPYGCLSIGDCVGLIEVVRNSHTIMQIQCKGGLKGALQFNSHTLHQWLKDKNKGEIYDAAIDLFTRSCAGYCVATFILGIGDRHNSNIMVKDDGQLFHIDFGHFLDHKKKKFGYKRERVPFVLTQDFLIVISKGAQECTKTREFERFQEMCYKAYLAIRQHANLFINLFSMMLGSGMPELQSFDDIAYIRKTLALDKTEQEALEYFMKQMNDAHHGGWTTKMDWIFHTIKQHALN
Chain of PI3 Kinase α (P27986 whole entry partner): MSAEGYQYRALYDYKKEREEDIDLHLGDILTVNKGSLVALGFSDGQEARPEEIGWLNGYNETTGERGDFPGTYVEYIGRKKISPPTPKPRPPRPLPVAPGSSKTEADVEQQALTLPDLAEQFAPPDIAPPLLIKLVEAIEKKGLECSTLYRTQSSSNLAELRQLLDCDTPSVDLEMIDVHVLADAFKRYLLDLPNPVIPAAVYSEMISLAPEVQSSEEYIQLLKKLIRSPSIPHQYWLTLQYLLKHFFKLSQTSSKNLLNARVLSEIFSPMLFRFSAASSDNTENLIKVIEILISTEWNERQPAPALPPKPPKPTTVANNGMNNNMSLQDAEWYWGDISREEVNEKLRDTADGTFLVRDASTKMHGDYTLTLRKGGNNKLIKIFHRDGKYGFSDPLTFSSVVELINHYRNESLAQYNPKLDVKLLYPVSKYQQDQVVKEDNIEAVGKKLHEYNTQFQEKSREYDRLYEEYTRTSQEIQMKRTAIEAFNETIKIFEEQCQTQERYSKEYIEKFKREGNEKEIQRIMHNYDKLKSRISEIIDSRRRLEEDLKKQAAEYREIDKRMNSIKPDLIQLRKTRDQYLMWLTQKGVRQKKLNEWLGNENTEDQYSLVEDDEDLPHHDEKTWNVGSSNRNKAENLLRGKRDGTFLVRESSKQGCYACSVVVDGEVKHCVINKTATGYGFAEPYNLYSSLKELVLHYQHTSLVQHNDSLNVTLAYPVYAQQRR

SMILES | IC50 (PI3 Kinase α) [nM] | IC50 (PI3 Kinase γ) [nM]
CCn1nnc2c(N3CCOCC3)nc(-c3ccc(NC(=O)Nc4ccc(C(=O)N(C)CCN(C)C)cc4)cc3)nc21 [Example 45, N-[2-(dimethylamino)ethyl]-4-({[4-(3-ethyl-7-morpholin-4-yl-3H-[1,2,3]triazolo[4,5-d]pyrimidin-5-yl)phenyl]carbamoyl}amino)-N-methylbenzamide] | < 2.2 | 11.3
CCn1nnc2c(N3CCOCC3)nc(-c3ccc(NC(=O)Nc4ccc(C(=O)NCCO)cc4)cc3)nc21 [Example 46, 4-({[4-(3-ethyl-7-morpholin-4-yl-3H-[1,2,3]triazolo[4,5-d]pyrimidin-5-yl)phenyl]carbamoyl}amino)-N-(2-hydroxyethyl)benzamide] | 2.8 | 14.5
CCn1nnc2c(N3CCOCC3)nc(-c3ccc(NC(=O)Nc4ccc(C(=O)NCCCN(C)C)cc4)cc3)nc21 [Example 47, N-[3-(dimethylamino)propyl]-4-({[4-(3-ethyl-7-morpholin-4-yl-3H-[1,2,3]triazolo[4,5-d]pyrimidin-5-yl)phenyl]carbamoyl}amino)benzamide] | < 2.7 | 9
CCn1nnc2c(N3CCOCC3)nc(-c3ccc(NC(=O)Nc4ccc(C(=O)N5CCC(N6CCOCC6)CC5)cc4)cc3)nc21 [Example 48, 1-[4-(3-ethyl-7-morpholin-4-yl-3H-[1,2,3]triazolo[4,5-d]pyrimidin-5-yl)phenyl]-3-{4-[(4-morpholin-4-ylpiperidin-1-yl)carbonyl]phenyl}urea] | 5.5 | 31
CCn1nnc2c(N3CCOCC3)nc(-c3ccc(NC(=O)Nc4ccc(C(=O)NCCN5CCN(C)CC5)cc4)cc3)nc21 [Example 49, 4-({[4-(3-ethyl-7-morpholin-4-yl-3H-[1,2,3]triazolo[4,5-d]pyrimidin-5-yl)phenyl]carbamoyl}amino)-N-[2-(4-methylpiperazin-1-yl)ethyl]benzamide] | < 3.1 | 25
CCn1nnc2c(N3CCOCC3)nc(-c3ccc(NC(=O)Nc4ccc(C(=O)N5CCC(N6CCCCC6)CC5)cc4)cc3)nc21 [Example 50, 1-[4-(1,4′-bipiperidin-1′-ylcarbonyl)phenyl]-3-[4-(3-ethyl-7-morpholin-4-yl-3H-[1,2,3]triazolo[4,5-d]pyrimidin-5-yl)phenyl]urea] | 1.8 | 18
CCn1nnc2c(N3CCOCC3)nc(-c3ccc(NC(=O)Nc4ccc(C(=O)NCc5ccncc5)cc4)cc3)nc21 [Example 51, 4-({[4-(3-ethyl-7-morpholin-4-yl-3H-[1,2,3]triazolo[4,5-d]pyrimidin-5-yl)phenyl]carbamoyl}amino)-N-(pyridin-4-ylmethyl)benzamide] | 3.6 | 31
CCn1nnc2c(N3CCOCC3)nc(-c3ccc(NC(=O)Nc4ccc(C(=O)N(C)CCNC)cc4)cc3)nc21 [Example 52, 4-({[4-(3-ethyl-7-morpholin-4-yl-3H-[1,2,3]triazolo[4,5-d]pyrimidin-5-yl)phenyl]carbamoyl}amino)-N-methyl-N-[2-(methylamino)ethyl]benzamide] | < 1.9 | 11.5
CCn1nnc2c(N3CCOCC3)nc(-c3ccc(NC(=O)Nc4ccc(C(=O)NCCN5CCOCC5)cc4)cc3)nc21 [Example 53, 4-({[4-(3-ethyl-7-morpholin-4-yl-3H-[1,2,3]triazolo[4,5-d]pyrimidin-5-yl)phenyl]carbamoyl}amino)-N-(2-morpholin-4-ylethyl)benzamide] | 3.5 | 29
CCn1nnc2c(N3CCOCC3)nc(-c3ccc(NC(=O)Nc4ccc(C(=O)N5CCN[C@H](C)C5)cc4)cc3)nc21 [Example 54, 1-[4-(3-ethyl-7-morpholin-4-yl-3H-[1,2,3]triazolo[4,5-d]pyrimidin-5-yl)phenyl]-3-(4-{[(3R)-3-methylpiperazin-1-yl]carbonyl}phenyl)urea] | < 1.8 | 7
CCn1nnc2c(N3CCOCC3)nc(-c3ccc(NC(=O)Nc4ccc(C(=O)NCCCN5CCN(C)CC5)cc4)cc3)nc21 [Example 55, 4-({[4-(3-ethyl-7-morpholin-4-yl-3H-[1,2,3]triazolo[4,5-d]pyrimidin-5-yl)phenyl]carbamoyl}amino)-N-[3-(4-methylpiperazin-1-yl)propyl]benzamide] | 1.5 | 16.5
CCn1nnc2c(N3CCOCC3)nc(-c3ccc(NC(=O)Nc4ccc(C(=O)NCCN5CCCCC5)cc4)cc3)nc21 [Example 56, 4-({[4-(3-ethyl-7-morpholin-4-yl-3H-[1,2,3]triazolo[4,5-d]pyrimidin-5-yl)phenyl]carbamoyl}amino)-N-(2-piperidin-1-ylethyl)benzamide] | 1.7 | 11
CCn1nnc2c(N3CCOCC3)nc(-c3ccc(NC(=O)Nc4ccc(C(=O)N5CCNC(C)(C)C5)cc4)cc3)nc21 [Example 57, 1-{4-[(3,3-dimethylpiperazin-1-yl)carbonyl]phenyl}-3-[4-(3-ethyl-7-morpholin-4-yl-3H-[1,2,3]triazolo[4,5-d]pyrimidin-5-yl)phenyl]urea] | < 1.7 | 7
CCn1nnc2c(N3CCOCC3)nc(-c3ccc(NC(=O)Nc4ccc(C(=O)N5CCN(c6ccccn6)CC5)cc4)cc3)nc21 [Example 58, 1-[4-(3-ethyl-7-morpholin-4-yl-3H-[1,2,3]triazolo[4,5-d]pyrimidin-5-yl)phenyl]-3-{4-[(4-pyridin-2-ylpiperazin-1-yl)carbonyl]phenyl}urea] | 2.5 | 14
CCN1CCCC1CNC(=O)c1ccc(NC(=O)Nc2ccc(-c3nc(N4CCOCC4)c4nnn(CC)c4n3)cc2)cc1 (centres unmarked) [Example 59, 4-({[4-(3-ethyl-7-morpholin-4-yl-3H-[1,2,3]triazolo[4,5-d]pyrimidin-5-yl)phenyl]carbamoyl}amino)-N-[(1-ethylpyrrolidin-2-yl)methyl]benzamide] | 2.5 | 26
CCn1nnc2c(N3CCOCC3)nc(-c3ccc(NC(=O)Nc4ccc(C(N)=O)cc4)cc3)nc21 [Example 60, 4-({[4-(3-ethyl-7-morpholin-4-yl-3H-[1,2,3]triazolo[4,5-d]pyrimidin-5-yl)phenyl]carbamoyl}amino)benzamide] | < 2.6 | 16.5
CCn1nnc2c(N3CCOCC3)nc(-c3ccc(NC(=O)Nc4ccc(C(=O)N(C)C)cc4)cc3)nc21 [Example 61, 4-({[4-(3-ethyl-7-morpholin-4-yl-3H-[1,2,3]triazolo[4,5-d]pyrimidin-5-yl)phenyl]carbamoyl}amino)-N,N-dimethylbenzamide] | 1.6 | 12
CCCCNC(=O)c1ccc(NC(=O)Nc2ccc(-c3nc(N4CCOCC4)c4nnn(CC)c4n3)cc2)cc1 [Example 62, N-butyl-4-({[4-(3-ethyl-7-morpholin-4-yl-3H-[1,2,3]triazolo[4,5-d]pyrimidin-5-yl)phenyl]carbamoyl}amino)benzamide] | 6 | 33
CCn1nnc2c(N3CCOCC3)nc(-c3ccc(NC(=O)Nc4ccc(C(=O)NCCc5ccccn5)cc4)cc3)nc21 [Example 63, 4-({[4-(3-ethyl-7-morpholin-4-yl-3H-[1,2,3]triazolo[4,5-d]pyrimidin-5-yl)phenyl]carbamoyl}amino)-N-(2-pyridin-2-ylethyl)benzamide] | 4.5 | 30
CCNC(=O)c1ccc(NC(=O)Nc2ccc(-c3nc(N4CCOCC4)c4nnn(CC)c4n3)cc2)cc1 [Example 64, N-ethyl-4-({[4-(3-ethyl-7-morpholin-4-yl-3H-[1,2,3]triazolo[4,5-d]pyrimidin-5-yl)phenyl]carbamoyl}amino)benzamide] | 3.3 | 15.5
CCn1nnc2c(N3CCOCC3)nc(-c3ccc(NC(=O)NC4CCN(C(=O)OCc5ccccc5)CC4)cc3)nc21 [Example 65, benzyl 4-({[4-(3-ethyl-7-morpholin-4-yl-3H-[1,2,3]triazolo[4,5-d]pyrimidin-5-yl)phenyl]carbamoyl}amino)piperidine-1-carboxylate] | 5630 | 1800
CCn1nnc2c(N3CCOCC3)nc(-c3ccc(NC(=O)NC4CCNCC4)cc3)nc21 [Example 66, 1-[4-(3-ethyl-7-morpholin-4-yl-3H-[1,2,3]triazolo[4,5-d]pyrimidin-5-yl)phenyl]-3-piperidin-4-ylurea] | 400 | 2770
CCn1nnc2c(N3CCOC[C@@H]3C)nc(-c3ccc(N)cc3)nc21 [Example 67, (S)-4-(3-ethyl-7-(3-methylmorpholino)-3H-[1,2,3]triazolo[4,5-d]pyrimidin-5-yl)aniline] | 2140 | > 10000
CCn1nnc2c(N3CCOC[C@@H]3C)nc(-c3ccc(NC(=O)Nc4ccc(CCO)cc4)cc3)nc21 [Example 68, (S)-1-(4-(3-ethyl-7-(3-methylmorpholino)-3H-[1,2,3]triazolo[4,5-d]pyrimidin-5-yl)phenyl)-3-(4-(2-hydroxyethyl)phenyl)urea] | 9 | 70.3
CCn1nnc2c(N3CCOC[C@@H]3C)nc(-c3ccc(NC(=O)Nc4cccs4)cc3)nc21 [Example 69, (S)-1-(4-(3-ethyl-7-(3-methylmorpholino)-3H-[1,2,3]triazolo[4,5-d]pyrimidin-5-yl)phenyl)-3-(thiophen-2-yl)urea] | 8.5 | 97.5
CCn1nnc2c(N3CCOC[C@@H]3C)nc(-c3ccc(NC(=O)Nc4ccc(CO)cc4)cc3)nc21 [Example 70, (S)-1-(4-(3-ethyl-7-(3-methylmorpholino)-3H-[1,2,3]triazolo[4,5-d]pyrimidin-5-yl)phenyl)-3-(4-(hydroxymethyl)phenyl)urea] | 5.5 | 102
CCn1nnc2c(N3CCOC[C@@H]3C)nc(-c3ccc(NC(=O)Nc4ccncc4)cc3)nc21 [Example 71, (S)-1-(4-(3-ethyl-7-(3-methylmorpholino)-3H-[1,2,3]triazolo[4,5-d]pyrimidin-5-yl)phenyl)-3-(pyridin-4-yl)urea] | 7 | 55.5
CCn1nnc2c(N3CCOC[C@@H]3C)nc(-c3ccc(NC(=O)Nc4cccnc4)cc3)nc21 [Example 72, (S)-1-(4-(3-ethyl-7-(3-methylmorpholino)-3H-[1,2,3]triazolo[4,5-d]pyrimidin-5-yl)phenyl)-3-(pyridin-3-yl)urea] | 8 | 88.5

From patent US20090181963A1, “3H-[1,2,3]TRIAZOLO[4,5-D]PYRIMIDINE COMPOUNDS, THEIR USE AS mTOR KINASE AND PI3 KINASE INHIBITORS, AND THEIR [sequence]” (Wyeth, priority 2008, published 2009)
